pIC50: −log10 of the molar value. Several values for one entry are separate records, joined by “and”; a condition that tells them apart may be missing. Equal values may be shown once.
Tested on: NCI-H196 complex spheroid viability
Assay: Anticancer human tumor NCI-H196 cell line growth inhibition [LSD1];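 further: spheroids exposed to agents for 7 days before readout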;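 on viability, T/C: 100% = DMSO vehicle control viability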
Details: for viability, T/C: stronger effect = lower value
Outline: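 Drug combinations with the LSD1 inhibitor iadademstat tested on tumor cells co-cultured as spheroids with endothelial cells and mesenchymal stem cells. Concentrations descended in half-log increments from clinical Cmax or 10 microM.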

[1] = curve of first compound, second compound 0.1 µM
[2] = curve of first compound, second compound 0.316 µM
[3] = curve of first compound, second compound 1 µM
[4] = curve of first compound, second compound 3.16 µM
[5] = curve of first compound, second compound 10 µM

O=C(C=Cn1cnc(-c2cc(C(F)(F)F)cc(C(F)(F)F)c2)n1)NNc1cnccn1
viability, T/C (compound 0.00316 µM): 28.4% and 33.1% | viability, T/C (compound 0.01 µM): 31% and 30.9% | viability, T/C (compound 0.0316 µM): 19.2% and 19.6% | viability, T/C (compound 0.1 µM): 17.7% and 14.5% | viability, T/C (compound 0.316 µM): 13.8% and 10.2% | viability, T/C (compound 1 µM): 7.27% and 6.31% | pIC50 (curve of compound): > 8.50

O=C(C=Cc1cccc(S(=O)(=O)Nc2ccccc2)c1)NO + NC1CC1c1ccc(-c2cccc(O)c2)cc1
pIC50 [1]: 6.86 | pIC50 [2]: 6.89 | pIC50 [3]: 6.83 | pIC50 [4]: 6.86 | pIC50 [5]: 6.82 | viability, T/C (second compound 0.1 µM, first compound 0.00949 µM): 106% | viability, T/C (second compound 0.1 µM, first compound 0.03 µM): 91.2% | viability, T/C (second compound 0.1 µM, first compound 0.0949 µM): 70.3% | viability, T/C (second compound 0.1 µM, first compound 0.3 µM): 9.6% | viability, T/C (second compound 0.1 µM, first compound 0.949 µM): 0.22% | viability, T/C (second compound 0.1 µM, first compound 3 µM): 0.32% | viability, T/C (second compound 0.316 µM, first compound 0.00949 µM): 96.7% | viability, T/C (second compound 0.316 µM, first compound 0.03 µM): 92.6% | viability, T/C (second compound 0.316 µM, first compound 0.0949 µM): 64.3% | viability, T/C (second compound 0.316 µM, first compound 0.3 µM): 10.6% | viability, T/C (second compound 0.316 µM, first compound 0.949 µM): 0.24% | viability, T/C (second compound 0.316 µM, first compound 3 µM): 0.42% | viability, T/C (second compound 1 µM, first compound 0.00949 µM): 112% | viability, T/C (second compound 1 µM, first compound 0.03 µM): 89.5% | viability, T/C (second compound 1 µM, first compound 0.0949 µM): 75.1% | viability, T/C (second compound 1 µM, first compound 0.3 µM): 13.9% | viability, T/C (second compound 1 µM, first compound 0.949 µM): 1.06% | viability, T/C (second compound 1 µM, first compound 3 µM): 0.34% | viability, T/C (second compound 3.16 µM, first compound 0.00949 µM): 101% | viability, T/C (second compound 3.16 µM, first compound 0.03 µM): 101% | viability, T/C (second compound 3.16 µM, first compound 0.0949 µM): 68.6% | viability, T/C (second compound 3.16 µM, first compound 0.3 µM): 10% | viability, T/C (second compound 3.16 µM, first compound 0.949 µM): 1.82% | viability, T/C (second compound 3.16 µM, first compound 3 µM): 0.33% | viability, T/C (second compound 10 µM, first compound 0.00949 µM): 115% | viability, T/C (second compound 10 µM, first compound 0.03 µM): 92.6% | viability, T/C (second compound 10 µM, first compound 0.0949 µM): 76.3% | viability, T/C (second compound 10 µM, first compound 0.3 µM): 14.5% | viability, T/C (second compound 10 µM, first compound 0.949 µM): 0.36% | viability, T/C (second compound 10 µM, first compound 3 µM): 0.36%

COc1ccc([C@@H](O)c2cc(-c3ncnc4cc(N5CCOCC5)ccc34)c(F)cc2Cl)nn1 + NC1CCC(NC2CC2c2ccccc2)CC1
pIC50 [1]: < 5.00 | pIC50 [2]: < 5.00 | pIC50 [3]: < 5.00 | pIC50 [4]: < 5.00 | pIC50 [5]: < 5.00 | viability, T/C (second compound 0.1 µM, first compound 0.0316 µM): 102% | viability, T/C (second compound 0.1 µM, first compound 0.1 µM): 99.2% | viability, T/C (second compound 0.1 µM, first compound 0.316 µM): 88.9% | viability, T/C (second compound 0.1 µM, first compound 1 µM): 81.3% | viability, T/C (second compound 0.1 µM, first compound 3.16 µM): 72.7% | viability, T/C (second compound 0.1 µM, first compound 10 µM): 53.7% | viability, T/C (second compound 0.316 µM, first compound 0.0316 µM): 103% | viability, T/C (second compound 0.316 µM, first compound 0.1 µM): 102% | viability, T/C (second compound 0.316 µM, first compound 0.316 µM): 96.6% | viability, T/C (second compound 0.316 µM, first compound 1 µM): 85.5% | viability, T/C (second compound 0.316 µM, first compound 3.16 µM): 73.4% | viability, T/C (second compound 0.316 µM, first compound 10 µM): 54.6% | viability, T/C (second compound 1 µM, first compound 0.0316 µM): 95.7% | viability, T/C (second compound 1 µM, first compound 0.1 µM): 105% | viability, T/C (second compound 1 µM, first compound 0.316 µM): 93.4% | viability, T/C (second compound 1 µM, first compound 1 µM): 90.5% | viability, T/C (second compound 1 µM, first compound 3.16 µM): 76% | viability, T/C (second compound 1 µM, first compound 10 µM): 58% | viability, T/C (second compound 3.16 µM, first compound 0.0316 µM): 103% | viability, T/C (second compound 3.16 µM, first compound 0.1 µM): 103% | viability, T/C (second compound 3.16 µM, first compound 0.316 µM): 88.9% | viability, T/C (second compound 3.16 µM, first compound 1 µM): 88.9% | viability, T/C (second compound 3.16 µM, first compound 3.16 µM): 69.5% | viability, T/C (second compound 3.16 µM, first compound 10 µM): 54% | viability, T/C (second compound 10 µM, first compound 0.0316 µM): 102% | viability, T/C (second compound 10 µM, first compound 0.1 µM): 104% | viability, T/C (second compound 10 µM, first compound 0.316 µM): 89.8% | viability, T/C (second compound 10 µM, first compound 1 µM): 84.2% | viability, T/C (second compound 10 µM, first compound 3.16 µM): 73.3% | viability, T/C (second compound 10 µM, first compound 10 µM): 57%
